Earlier results in US6531115B1, “Analgesic and refreshing herbal composition and a process for preparing the same” (Council of Scientific & Industrial Research, priority 2001, dated 2003).

How the values were obtained:
toothache = conditions: in vivo
artificial toothache = conditions: rabbits having artificial toothache

Compound | pain-relieving activity (toothache) | sedative effect on toothache (artificial toothache)
CCO [alcohol] | almost no effect | 
CC12CCC(CC1=O)C2(C)C (stereo not drawn) [camphor] |  | no sedative effect
Cc1ccc(C(C)C)c(O)c1 [Thymol] | very weak | 
CC1CCC(C(C)C)C(O)C1 (stereo not drawn) [menthol] |  | weak
Oc1ccccc1 [Phenol] |  | strongest action
CC12CCC(CC1)C(C)(C)O2 [eucalyptol] |  | weak
